Results on one compound are retold here after patent US20250017950A1, “COMPOUNDS FOR TREATING MITOCHONDRIAL DNA DISORDERS” (UCL BUSINESS LTD, priority 2021, published 2025).

One assay addresses T1, asparagine synthetase (Homo sapiens, UniProt P08243).
T1 sequence (P08243 1-561): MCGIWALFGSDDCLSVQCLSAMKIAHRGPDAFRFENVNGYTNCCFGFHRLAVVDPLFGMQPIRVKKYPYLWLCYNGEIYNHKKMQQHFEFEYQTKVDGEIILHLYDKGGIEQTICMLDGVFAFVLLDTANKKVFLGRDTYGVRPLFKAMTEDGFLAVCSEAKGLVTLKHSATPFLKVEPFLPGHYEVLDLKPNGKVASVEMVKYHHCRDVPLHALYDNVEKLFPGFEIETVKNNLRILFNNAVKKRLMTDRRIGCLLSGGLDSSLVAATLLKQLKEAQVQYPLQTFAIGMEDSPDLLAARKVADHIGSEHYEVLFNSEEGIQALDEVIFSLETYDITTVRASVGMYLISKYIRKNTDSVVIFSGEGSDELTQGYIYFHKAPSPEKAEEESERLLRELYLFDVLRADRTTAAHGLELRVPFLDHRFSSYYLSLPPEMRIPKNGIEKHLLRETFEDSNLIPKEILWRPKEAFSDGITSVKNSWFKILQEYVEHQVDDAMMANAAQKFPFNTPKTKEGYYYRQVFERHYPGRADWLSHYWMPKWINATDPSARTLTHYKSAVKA
As to the kind of experiment: Asparagine synthetase inhibition.

A further assay deals with control fibroblasts. As to the kind of experiment: ATP measurements in control fibroblasts. The settings on record: control cells; 10 mM 2DG. The assay is classed as cell-based, human. The method, then:
Total intracellular ATP levels were measured by bio-luminescence using a luciferin-luciferase system according to the manufacturer's instructions. Cells were plated in duplicate 24 well plates, and treated the following day with 10 mM 2DG or 1 μM oligomycin alone for 24 hours, and 10 mM 2DG for 24 hours with addition of 1 μM of oligomycin for the last 4 hours. One plate was used to determine the total protein amount of samples, and the luminescence signal was normalized to the total amount of protein.

Consider `O=CC[C@@H](O)[C@H](O)[C@H](O)CO` [2DG, 2-deoxy-D-glucose], for which, on asparagine synthetase, the “effect on asparagine synthetase” value is “inhibits asparagine synthetase”. Moreover, the ATP level with control fibroblasts is reported as 70 % of untreated cells.
